According to patent US20240041830A1, “CIRCULATING BIOMARKERS OF RESPONSE TO PD-1/PD-L1 BLOCKADE AND GSK-3 INHIBITION” (Brown University, priority 2022, published 2024):

Columns and labels:
SW480 [1] = assay: multicolor co-culture of SW480 and TALL-104 T cells; assay type: cell-based, human
Text: Multicolor immune cell co-culture experiments.
Elraglusib sensitizes tumor cells to immune-mediated cytotoxicity. […] FIG. 8A. TALL-104 cells are a human leukemic T cell line.
FIG. 1A. […] FIG. 1B. […] FIG. 1C. […] FIG. 1D. […] FIG. 1E. […] FIG. 1F.

NK-92 = assay: microarray analysis; assay type: cell-based, human; settings: 1 μM, 24 hours, vs untreated
Procedure: Microarrays. A total of 0.5×10^6 tumor cells (HCT-116, HT-29, KM12C) were plated in a 6-well plate and allowed to adhere overnight before 24-hour treatment, as indicated. Then, 1×10^6 immune cells (NK92, TALL-104) were plated and treated with elraglusib as indicated for twenty-four h. RNA was isolated from cell pellets in batches of six using a RNeasy Plus Mini Kit (Cat #74134, Qiagen, Hilden, Germany). Acceptable RNA concentration and quality were verified with Nanodrop and Bioanalyzer measurements. GeneChip™ Human Transcriptome Array 2.0 assays were conducted according to manufacturer instructions in two batches using randomized samples to limit batch effects (Cat #902162, Applied Biosystems, Waltham, MA, USA). Applied Biosystems Transcriptomic Analysis Console (TAC) software (RRID: SCR_016519) was used to calculate fold changes in gene expression relative to the untreated control cells. Values were considered statistically significant for p values<0.05.
Microarray analysis was used to obtain insights into gene expression changes in immune cell lines post-GSK-3 inhibition with elraglusib. Immune cell lines (TALL-104, NK-92) were treated with elraglusib at IC50 concentrations or DMSO as vehicle control for twenty-four hours and treated versus untreated samples were compared in triplicate using microarray analysis. FIG. 11. Results were calculated using a fold-change (FC) cutoff of >1.5, <−1.5, and a minimum p-value of <0.05. NK-92 cells had sixty-one differentially expressed genes post-treatment (FIG. 3D). the inventors observed an increase in genes that promote immune cell proliferation (TNFSF14, RAB38) and control immune cell adhesion and migration (WNK1) post-elraglusib treatment.
TABLE 11 description. NK-92 immune cell microarray analysis. NK-92 immune cells were treated with 1 μM elraglusib for 24 hours and treated versus untreated control samples were compared in triplicate via microarray analysis (N=3).

TALL-104 = assay: Western blot analysis; assay type: cell-based, human; settings: as treatment duration increased (0-72 hours)
Procedure: Western blot analysis. Cells were plated in a 6-well plate and incubated overnight before the spent media was replaced with drugged media. Drug treatment lasted for indicated durations. Protein was extracted using radioimmunoprecipitation (RIPA) assay buffer (Cat #R0278, Sigma-Aldrich, St. Louis, MO, USA) containing cOmplete™, Mini, EDTA-free Protease Inhibitor Cocktail (Cat #4693159001, Roche, Basel, Switzerland) from sub-confluent cells. Denaturing sample buffer was added, samples were boiled at 95° C. for ten minutes, and an equal amount of protein lysate was electrophoresed through NuPAGE™ 4 to 12%, bis-Tris, 1.5 mm, Mini Protein Gels (Invitrogen, Waltham, MA, USA) then transferred to PVDF membranes. The PVDF membrane was blocked with 5% non-fat milk (Sigma-Aldrich, St. Louis, MO, USA) in 1× TTBS. Primary antibodies were incubated with the transferred PVDF membrane in blocking buffer at 4° C. overnight. […] The signal was detected using Pierce™ ECL Western Blotting Substrate (Cat #32106, Thermo Scientific, Waltham, MA, USA) and a Syngene Imaging System (RRID: SCR_015770).
Elraglusib enhances immune cell effector function. the inventors next analyzed immune cell lines (TALL-104, NK-92) using western blot analysis.

[2] = test system: adult T-cell leukemia/lymphoma (ATLL); assay: case of refractory ATLL treated in clinical trial NCT03678883; assay type: in vivo, human
Text: This EXAMPLE discloses a case of adult T-cell leukemia/lymphoma (ATLL) treated with elraglusib. A patient developed diffuse lymphadenopathy. […] CSF was positive for ATLL involvement. Twenty-two months after the diagnosis of ATLL was confirmed, as a fourth-line therapy in the presence of actively progressing disease, the patient was enrolled a Phase I/II study investigating the safety and efficacy of elraglusib, a selective small molecule inhibitor of glycogen synthase kinase-3 beta (GSK-3β) as monotherapy or in combination with chemotherapy in refractory solid tumors and hematological malignancies (NCT03678883). The patient started treatment with single-agent elraglusib (12.37 mg/kg IV twice weekly: 21-day cycle). […] This stability was confirmed on CT imaging after five and seven cycles of therapy.

[3] = test system: GFP+ SW480 colorectal cancer cells; assay: immune cell-killing co-culture assay (Example 1); assay type: cell-based, human
Procedure: A panel of human colorectal cell lines was chosen to provide a varied mutational background (TP53, KRAS, BRAF, TRK, APC, PIK3CA). Cells were treated with elraglusib at doses up to 50 μM for seventy-two hours to determine IC10, IC30, IC50, and IC70. Cytokine, chemokine, and growth factor levels were analyzed in the tumor cell culture supernatants after treatment at IC10, IC30, IC50, and IC70 for forty-eight hours using a Luminex 200 multiplexing instrument. Co-culture experiments were conducted with GFP+ SW480 colorectal cancer cells and either NK-92 natural killer cells or TALL-104 T cells at various effector/target ratios in a 48-well plate, in the presence or absence of elraglusib.

SW480 [4] = assay: multicolor co-culture of SW480 and donor-derived CD8+ T cells; settings: co-culture with donor-derived CD8+ T cells, 24 hours, normalized
Procedure: Isolation of donor-derived CD8+ T cells. An Easy Step Human CD8+ T Cell Isolation Kit was used to isolate CD8+ T cells from a donor PBMC sample via negative selection (Cat #, 17913, Stem Cell Technologies, Vancouver, Canada).
Multicolor immune cell co-culture experiments. A total of 10,000 HCT-116, SW480, or HT-29 colorectal cancer cells were plated per well in a clear-bottom, black-walled 48-well tissue culture plate and were allowed to adhere overnight. Cells were subsequently treated with DMSO, 5 μM or 10 μM elraglusib, or 10,000 TALL-104, donor-derived CD8+ T cells, or NK-92 cells (for an effector-to-tumor ratio of 1:1) for twenty-four hours. Immune cell monocultures were treated with DMSO, 5 μM or 10 μM elraglusib and cell viability was monitored to ensure that the concentrations of drug used were not cytotoxic to immune cells. […] 10× images were captured using a Nikon Ti-U Inverted Fluorescence Microscope and NIS-Elements F Package imaging software 3.22.00 Build 710 (Nikon Instruments Inc., New York, NY, USA). The number of red/green color cells in random fields was determined using thresholding and particle analysis in the Fiji modification (RRID: SCR_002285) of ImageJ and expressed as a dead/live cell ratio. […] At least one hundred cells were evaluated per sample, with three independent replicates. […]

[5] = vs controls without drug treatment

## Cn1cc(C2=C(c3coc4ccc(F)cc34)C(=O)NC2=O)c2cc3c(cc21)OCO3 [elraglusib]
SW480 [1]; co-culture with TALL-104, 5 μM, 24 hours, E:T 1:1, normalized, without drug approximately 45%
  dead cells out of total cells: 60%
SW480 [1]; co-culture with TALL-104, 10 μM, 24 hours, E:T 1:1, normalized, without drug approximately 45%
  dead cells out of total cells: 65%
SW480 [1]; tumor cells pre-treated 5 μM for twenty-four hours, then co-cultured with TALL-104
  dead cells out of total cells: 65%
NK-92
  ITGB8 Fold Change: −1.53
  MIR186 Fold Change: −1.52
  NAP1L1 Fold Change: −1.51
  RAB38 Fold Change: 1.65
  RNY5 Fold Change: 3.32
  S100A12 Fold Change: −1.78
  TNFSF14 Fold Change: 1.5
  WNK1 Fold Change: 1.5
TALL-104
  Bcl-2 expression: did not notice significant changes
  NF-κB expression: did not notice significant changes
[2]; 12.37 mg/kg IV twice weekly
  tolerability: tolerated the treatment well without significant adverse effects
[2]; after nineteen cycles of treatment, 9,043 ng/ml one month before treatment
  sIL-2 r serum concentration: 2,094 ng/ml
[2]; after ten cycles (seven months), 12.37 mg/kg IV twice weekly
  CT imaging response by RECIST Criteria: partial response
[2]; after two cycles, 12.37 mg/kg IV twice weekly, 21-day cycle
  CT imaging response: stable disease
[2]; elraglusib monotherapy
  duration of sustained reduction of peripheral blood ATLL cells: fifteen
[3]; pre-treatment of tumor cells, but not effector immune cells
  cell-killing after pre-treatment of the target tumor cells: bolstered cell-killing
[3]; [5]
  T cell (TALL-104) killing of colorectal cancer cells: significant increase
  natural killer (NK-92) cell killing of colorectal cancer cells: significant increase
SW480 [4]; 5 μM
  dead cells out of total cells: 65%
SW480 [4]; 10 μM
  dead cells out of total cells: 75%
